Biological target: Substance-P receptor (Homo sapiens, UniProt P25103)
Assay: Tested for inhibitory activity against substance P receptor.

Sequence of Substance-P receptor (P25103 whole entry): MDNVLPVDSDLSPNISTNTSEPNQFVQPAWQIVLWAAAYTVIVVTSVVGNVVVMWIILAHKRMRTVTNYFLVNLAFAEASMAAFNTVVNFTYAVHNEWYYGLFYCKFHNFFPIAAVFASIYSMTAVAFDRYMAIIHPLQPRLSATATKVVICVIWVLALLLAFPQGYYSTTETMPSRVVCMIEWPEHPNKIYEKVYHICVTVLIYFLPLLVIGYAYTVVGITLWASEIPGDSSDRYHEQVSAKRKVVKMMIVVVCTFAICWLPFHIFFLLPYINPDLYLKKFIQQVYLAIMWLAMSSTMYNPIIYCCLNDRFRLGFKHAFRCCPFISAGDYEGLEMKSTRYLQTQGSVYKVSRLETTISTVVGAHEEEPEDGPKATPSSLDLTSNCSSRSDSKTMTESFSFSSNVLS

For `c1ccc([C@H]2NCCC[C@]23CC[C@H](c2ccccc2)N3)cc1`, the IC50 was > 1000 nM.

From ChEMBL document CHEMBL1127126, “Conformationally restricted analogs of CP-99,994: synthesis of a spirocyclic amine” (Bioorg Med Chem Lett, 1993)
